Data as given in US8088758B2, “17β-hydroxysteroid dehydrogenase type I inhibitors” (Abbott Products GmbH, priority 2003, dated 2012).

Target: T1, recombinant human 17β-hydroxysteroid dehydrogenase type 1 (Homo sapiens, UniProt P14061)
T1 construct: made in house; host or cells: Sf9 insect cells (baculovirus, Bac to Bac Expression System)
T1 sequence (P14061 1-328): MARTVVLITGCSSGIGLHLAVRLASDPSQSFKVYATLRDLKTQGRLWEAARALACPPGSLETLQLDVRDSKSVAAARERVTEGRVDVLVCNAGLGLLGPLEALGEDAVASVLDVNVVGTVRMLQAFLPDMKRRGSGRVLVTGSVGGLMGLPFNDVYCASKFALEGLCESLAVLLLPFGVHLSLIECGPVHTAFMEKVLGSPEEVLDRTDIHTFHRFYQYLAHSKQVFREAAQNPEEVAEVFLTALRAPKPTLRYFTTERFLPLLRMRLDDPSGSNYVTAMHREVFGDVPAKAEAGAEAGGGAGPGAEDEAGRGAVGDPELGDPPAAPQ
Assay: Inhibition of recombinant human 17β-hydroxysteroid dehydrogenase type 1 (conversion of 3H-estrone to estradiol, HPLC)
Type: biochemical
Details: 30 nM 3H-estrone, 1 mM NADPH, 30 min at RT; for inhibition at 0.1 µM: inhibitor 100 nM, read-out: Inhibition of rec. 17β-HSD1 (% inhibition), 100 nM; for inhibition at 1 µM: inhibitor 1 μm, read-out: Inhibition of rec. 17β-HSD1 (% inhibition), 1 μm
Method: 1. Inhibition of the 17β-hydroxysteroid Dehydrogenase Type 1 Enzyme
17β-HSD1 Purification: Recombinant baculovirus was generated by the “Bac to Bac Expression System” (Invitrogen). Recombinant bacmid was transfected to Sf9 insect cells using “Cellfectin Reagent” (Invitrogen). 60 h later cells were harvested; the microsomal fraction was isolated as described by Puranen et al. 1994. Aliquots were stored frozen until determination of enzymatic activity.
Assay—Inhibition of Recombinant Human 17β-hydroxysteroid Dehydrogenase Type 1:
Recombinant protein (0.1 μg/ml) was incubated in 20 mM KH2PO4 pH 7.4 with 30 nM 3H-estrone and 1 mM NADPH for 30 min at RT, in the presence of potential inhibitors at concentrations of 1 μM or 0.1 μM. Inhibitor stock solutions were prepared in DMSO. Final concentration of DMSO was adjusted to 1% in all samples. The enzyme reaction was stopped by addition of 10% trichloroacetic acid (final concentration). Samples were centrifuged in a microtiter plate at 4000 rpm for 10 min. Supernatants were applied to reverse phase HPLC on a Waters Symmetry C18 column, equipped with a Waters Sentry Guard column. Isocratic HPLC runs were performed at RT at a flow rate of 1 ml/min of acetonitrile:water 48:52 as running solvent. Radioactivity was monitored in the eluate by a Packard Flow Scintillation Analyzer. Total radioactivity for estrone and estradiol were determined in each sample and percent conversion of estrone to estradiol was calculated according to the following formula:
Percent inhibition was calculated as follows: % inhibition=100−% conversion

CN(Cc1ccccc1)C(=O)CCC[C@@H]1CC(=O)[C@@]2(C)CC[C@@H]3c4ccc(O)cc4CC[C@H]3[C@H]12 [Example 38, N-Benzyl-4-(3-hydroxy-17-oxo-estra-1,3,5(10)-trien-15β-yl)-N-methyl-butyramide] showed an inhibition at 0.1 µM of 60.5% and an inhibition at 1 µM of 89.5%.

Compound C[C@]12CC[C@@H]3c4ccc(O)cc4CC[C@H]3[C@@H]1[C@H](CCCC(=O)NCc1ccccc1)CC2=O [Example 3A, N-Benzyl-4-(3-hydroxy-17-oxo-estra-1,3,5(10)-trien-15β-yl)-butyramide] has an inhibition at 0.1 µM of 51.6% and an inhibition at 1 µM of 84.1%.

In the case of COc1ccc2c(c1)CCC1C2CC[C@]2(C)C(=O)C[C@H](C(=O)N(C)Cc3cccc4ccccc34)C12 (stereo partly drawn) [Example 152], the inhibition at 0.1 µM is reported as 25.6% and the inhibition at 1 µM is reported as 41.4%.

For COc1ccc2c(c1)CC[C@H]1[C@@H]3[C@H](CCCCCC(=O)NCc4ccccc4)CC(=O)[C@@]3(C)CC[C@H]21 [Example 359], the inhibition at 0.1 µM was 40.5% and the inhibition at 1 µM was 88.3%.

COc1ccc2c(c1)CC[C@H]1[C@@H]3[C@H](CCCCC(=O)NCc4cccc(F)c4)CC(=O)[C@@]3(C)CC[C@H]21 [Example 342] gave an inhibition at 0.1 µM of 40.4% and an inhibition at 1 µM of 89.2%.

With COc1ccc2c(c1)CC[C@H]1[C@@H]3[C@H](CCCCC(=O)NCc4ccncc4)CC(=O)[C@@]3(C)CC[C@H]21 [Example 339] the inhibition at 0.1 µM was 25.9% and the inhibition at 1 µM was 82.9%.

Compound CN(C[C@H]1CC(=O)[C@@]2(C)CC[C@@H]3c4ccc(O)cc4CC[C@H]3[C@H]12)S(=O)(=O)c1ccc2ccccc2c1 [Example 681] has an inhibition at 0.1 µM of 39.7% and an inhibition at 1 µM of 87.1%.

Work on COc1ccc2c(c1)CC[C@H]1[C@@H]3[C@H](CCCCCC(=O)NCCc4cccs4)CC(=O)[C@@]3(C)CC[C@H]21 [Example 366] yielded an inhibition at 0.1 µM of 56.3% and an inhibition at 1 µM of 94.4%.

C[C@]12CC[C@@H]3c4ccc(O)cc4CC[C@H]3[C@@H]1[C@@H](CCCCNC(=O)NCC1CCCCC1)CC2=O [Example 491] was tested, and the inhibition at 0.1 µM was 56.9% and the inhibition at 1 µM was 83%.

Compound COc1ccc2c(c1)CC[C@H]1[C@@H]3[C@H](CCCCCC(=O)NCCc4c[nH]c5c(C)cccc45)CC(=O)[C@@]3(C)CC[C@H]21 [Example 367] has an inhibition at 0.1 µM of 51.5% and an inhibition at 1 µM of 73.5%.

COc1ccc2c(c1)CC[C@H]1[C@@H]3[C@H](CCCCCC(=O)NCc4ccco4)CC(=O)[C@@]3(C)CC[C@H]21 [Example 350] showed an inhibition at 0.1 µM of 27.7% and an inhibition at 1 µM of 80.7%.

For COc1ccc2c(c1)CC[C@H]1[C@@H]3[C@H](CCCCC(=O)N(C)Cc4ccccc4)CC(=O)[C@@]3(C)CC[C@H]21 [Example 344], the inhibition at 0.1 µM was 39.8% and the inhibition at 1 µM was 88.9%.

COc1ccc2c(c1)CC[C@H]1[C@@H]3[C@H](CCC(=O)NCCc4cccs4)CC(=O)[C@@]3(C)CC[C@H]21 [Example 327] was tested, and the inhibition at 0.1 µM was 28.7% and the inhibition at 1 µM was 77%.

With COc1ccc2c(c1)CC[C@H]1[C@@H]3[C@H](CCCNC(=O)NC4CCCCC4)CC(=O)[C@@]3(C)CC[C@H]21 [Example 450] the inhibition at 0.1 µM was 34% and the inhibition at 1 µM was 80.7%.

Work on COc1ccc2c(c1)CC[C@H]1[C@@H]3[C@H](CCCCCC(=O)NCc4cccc(F)c4)CC(=O)[C@@]3(C)CC[C@H]21 [Example 361] yielded an inhibition at 0.1 µM of 35.8% and an inhibition at 1 µM of 84.2%.

For CN(C[C@H]1CC(=O)[C@@]2(C)CC[C@@H]3c4ccc(O)cc4CC[C@H]3[C@H]12)S(=O)(=O)c1cccc(Cl)c1 [Example 693], the inhibition at 0.1 µM was 25.8% and the inhibition at 1 µM was 80.1%.

COc1ccc2c(c1)CC[C@H]1[C@@H]3[C@H](CCCC(=O)NCc4ccco4)CC(=O)[C@@]3(C)CC[C@H]21 [Example 7] gave an inhibition at 0.1 µM of 28.7% and an inhibition at 1 µM of 63.4%.

COc1ccc2c(c1)CC[C@H]1[C@@H]3[C@H](CCCCCC(=O)NC4CCCCC4)CC(=O)[C@@]3(C)CC[C@H]21 [Example 348] was tested, and the inhibition at 0.1 µM was 30.5% and the inhibition at 1 µM was 82.4%.

In the case of COc1ccc2c(c1)CC[C@H]1[C@@H]3[C@H](CCCCC(=O)NC4CC4)CC(=O)[C@@]3(C)CC[C@H]21 [Example 330], the inhibition at 0.1 µM is reported as 25.2% and the inhibition at 1 µM is reported as 75.9%.

COc1ccc2c(c1)CCC1C2CC[C@]2(C)C(=O)C[C@@H](CCCC(=O)NCCc3c[nH]c4c(C)cccc34)C12 (stereo partly drawn) [Example 31] gave an inhibition at 0.1 µM of 52.8% and an inhibition at 1 µM of 77.9%.

In the case of COc1ccc2c(c1)CC[C@H]1[C@@H]3[C@H](CCCOC(=O)Nc4ccc(C(F)(F)F)cc4)CC(=O)[C@@]3(C)CC[C@H]21 [Example 745], the inhibition at 0.1 µM is reported as 29.9% and the inhibition at 1 µM is reported as 53.5%.

For COc1ccc2c(c1)CC[C@H]1[C@@H]3[C@H](CCCOC(=O)Nc4ccc(Cl)cc4Cl)CC(=O)[C@@]3(C)CC[C@H]21 [Example 744], the inhibition at 0.1 µM was 37.1% and the inhibition at 1 µM was 53.9%.

COc1ccc2c(c1)CC[C@H]1[C@@H]3[C@H](CCCCC(=O)NC4CCCCC4)CC(=O)[C@@]3(C)CC[C@H]21 [Example 331] was tested, and the inhibition at 0.1 µM was 37% and the inhibition at 1 µM was 88%.

For CCCCNC(=O)CCCC[C@@H]1CC(=O)[C@@]2(C)CC[C@@H]3c4ccc(OC)cc4CC[C@H]3[C@H]12 [Example 345], the inhibition at 0.1 µM was 33% and the inhibition at 1 µM was 85.6%.

CNC(=O)CCC[C@@H]1CC(=O)[C@@]2(C)CC[C@@H]3c4ccc(OC)cc4CC[C@H]3[C@H]12 [Example 4B, 4-(3-Methoxy-17-oxo-estra-1,3,5(10)-trien-15β-yl)-N-methyl-butyramide] was tested, and the inhibition at 0.1 µM was 30.5% and the inhibition at 1 µM was 60.8%.

Work on COc1ccc2c(c1)CC[C@H]1[C@@H]3[C@H](CCCCC(=O)NCc4ccccc4OC)CC(=O)[C@@]3(C)CC[C@H]21 [Example 341] yielded an inhibition at 0.1 µM of 38.1% and an inhibition at 1 µM of 88%.

COc1ccc2c(c1)CC[C@H]1[C@@H]3[C@H](CCC(=O)NCCc4ccc(O)cc4)CC(=O)[C@@]3(C)CC[C@H]21 [Example 324] showed an inhibition at 0.1 µM of 57.9% and an inhibition at 1 µM of 91.5%.

For COc1ccc2c(c1)CC[C@H]1[C@@H]3[C@H](CCCCOC(=O)Nc4cccc([N+](=O)[O-])c4)CC(=O)[C@@]3(C)CC[C@H]21 [Example 754], the inhibition at 0.1 µM was 29.3% and the inhibition at 1 µM was 65.1%.

Work on COc1ccc2c(c1)CC[C@H]1[C@@H]3[C@H](CCCCC(=O)NCc4ccccc4)CC(=O)[C@@]3(C)CC[C@H]21 [Example 340] yielded an inhibition at 0.1 µM of 51.4% and an inhibition at 1 µM of 91.9%.

COc1ccc2c(c1)CC[C@H]1[C@@H]3[C@H](CCCCCC(=O)NCc4ccncc4)CC(=O)[C@@]3(C)CC[C@H]21 [Example 357] gave an inhibition at 0.1 µM of 31.1% and an inhibition at 1 µM of 85.2%.

Compound COc1ccc2c(c1)CC[C@H]1[C@@H]3[C@H](CCCC(=O)NCc4ccccc4)CC(=O)[C@@]3(C)CC[C@H]21 [Example 3B, N-Benzyl-4-(3-methoxy-17-oxo-estra-1,3,5(10)-trien-15β-yl)-butyramide] has an inhibition at 0.1 µM of 77.4% and an inhibition at 1 µM of 82.1%.

For C[C@]12CC[C@@H]3c4ccc(O)cc4CC[C@H]3[C@@H]1[C@@H](CCCC(=O)N1CCOCC1)CC2=O [Example 40, 3-Hydroxy-15α-(4-morpholin-4-yl-4-oxo-butyl)-estra-1,3,5(10)-trien-17-one], the inhibition at 0.1 µM was 32.3% and the inhibition at 1 µM was 79.4%.

C[C@]12CC[C@@H]3c4ccc(O)cc4CC[C@H]3[C@@H]1[C@@H](CNS(=O)(=O)c1ccc3ccccc3c1)CC2=O [Example 661] gave an inhibition at 0.1 µM of 40.1% and an inhibition at 1 µM of 82%.

COc1ccc2c(c1)CCC1C2CC[C@]2(C)C(=O)C[C@H](C(=O)Nc3ncc(C)s3)C12 (stereo partly drawn) [Example 105] gave an inhibition at 0.1 µM of 33.8% and an inhibition at 1 µM of 81%.

COc1ccc2c(c1)CC[C@H]1[C@@H]3[C@H](CCCCC(=O)NCc4ccco4)CC(=O)[C@@]3(C)CC[C@H]21 [Example 333] was tested, and the inhibition at 0.1 µM was 47.9% and the inhibition at 1 µM was 91%.

C[C@]12CC[C@@H]3c4ccc(O)cc4CC[C@H]3[C@@H]1[C@@H](CNS(=O)(=O)c1ccccc1)CC2=O [Example 664] was tested, and the inhibition at 0.1 µM was 60.5% and the inhibition at 1 µM was 92.7%.
